Experimental data as given in patent US10196357B2, “Biaryl compositions and methods for modulating a kinase cascade” (Athenex, Inc., priority 2007, dated 2019).

What was measured:
Fyn(h) = Fyn(h) (Homo sapiens, UniProt P06241); assay: isolated kinase activity, Fyn; assay type: biochemical; conditions: compound @ 10 μM
From the text: (§1) Table 8 illustrates percent activity of isolated kinases in the presence of the AstraZeneca ATP-competitive inhibitor (KX2-328, AZ-28) or KX2-391 relative to control (untreated) isolated kinases.

Lck(h) = Lck(h) (Homo sapiens, UniProt P06239); assay: isolated kinase activity, Lck; assay type: biochemical; conditions: compound @ 10 μM
From the text: as §1

Paxillin Y-31 = assay: intracellular phosphorylation, Paxillin Y-31; assay type: cell-based; conditions: c-Src527F/NIH-3T3 cells
Protocol: (§2) HT29 (colon cancer) and c-Src527F/NIH-3T3 (Src transformed) cell lines were treated with KX2-391 or with AstraZeneca's ATP competitive Src inhibitor AZ28. AZ28 serves as a positive comparator to show what a validated Src inhibitor should do in these assays. After treatment with compound, cells were lysed, subjected to PAGE and probed with a battery of antibodies. […] In addition, off-target protein phosphorylation was also investigated. Further, induction of apoptosis was evaluated via Caspase 3 cleavage. Multiple doses of each compound were tested because the trends in response to increasing drug concentration are the most reliable indicator of activity.
(§3) The same range of multiples of the GI50 for AZ28 in these two cell lines was run as a comparison.

PI3 kinase = assay: isolated kinase activity, PI3 kinase; assay type: biochemical; conditions: compound @ 10 μM
From the text: as §1

FAK Tyr 925 = assay: intracellular phosphorylation, FAK Tyr 925; assay type: cell-based; conditions: whole cells
Protocol: as §2, §3
KX2-391 and AZ28 inhibited Src transphosphorylation.

IGF-1R(h) = IGF-1R(h) (Homo sapiens, UniProt P08069); assay: isolated kinase activity, IGF-1R; assay type: biochemical; conditions: compound @ 10 μM
From the text: as §1

Pyk2(h) = Pyk2(h) (Homo sapiens, UniProt Q14289); assay: isolated kinase activity, Pyk2; assay type: biochemical; conditions: compound @ 10 μM
From the text: as §1

FGFR2(h) = FGFR2(h) (Homo sapiens, UniProt P21802); assay: isolated kinase activity, FGFR2; assay type: biochemical; conditions: compound @ 10 μM
From the text: as §1

EGFR(h) = EGFR(h) (Homo sapiens, UniProt P00533); assay: isolated kinase activity, EGFR; assay type: biochemical; conditions: compound @ 10 μM
From the text: as §1

PKCα(h) = PKCα(h) (Homo sapiens, UniProt P17252); assay: isolated kinase activity, PKCα; assay type: biochemical; conditions: compound @ 10 μM
From the text: as §1

Yes(h) = Yes(h) (Homo sapiens, UniProt P07947); assay: isolated kinase activity, Yes; assay type: biochemical; conditions: compound @ 10 μM
From the text: as §1

ZAP-70(h) = ZAP-70(h) (Homo sapiens, UniProt P43403); assay: isolated kinase activity, ZAP-70; assay type: biochemical; conditions: compound @ 10 μM
From the text: as §1

[1] = test system: total phosphotyrosine levels; assay: total phosphotyrosine levels; assay type: cell-based; conditions: HT29 and c-Src527F/NIH-3T3 cells
Protocol: as §2, §3

[2] = test system: Ba/F3 + BCR-Abl E225K mutant; assay: MTT growth inhibition, Ba/F3 + BCR-Abl E225K; assay type: cell-based; conditions: 96 hrs
From the text: (§4) Cultures of Ba/F3 cells were also transfected to express wild-type (WT) Bcr-Abl, E255K mutation of Bcr-Abl, or T315I mutation of Bcr-Abl and cultured in 96-well plates in complete media without IL-3. The Ba/F3 cell line is rendered Gleevec resistant when the mutation in the Bcr/Abl tyrosine kinase […] is present. […] All assays are in triplicate.

Ba/F3 + WT BCR-Abl = assay: MTT growth inhibition, Ba/F3 + WT BCR-Abl; assay type: cell-based; conditions: 96 hrs
From the text: as §4

Daoy = assay: brain tumor cell growth inhibition, Daoy; assay type: cell-based, Human; conditions: desmoplastic cerebellar medulloblastoma, read-out: IC50 (title: GI50)
[3] = test system: Jurkat (Adult T cell leukemia); assay: growth inhibition, Jurkat; assay type: cell-based, Human
[4] = test system: CCRF-HSB-2 (Adult lymphoblastic leukemia); assay: growth inhibition, CCRF-HSB-2; assay type: cell-based, Human; conditions: read-out: GI50
[5] = test system: protein tyrosine kinases (PTKs); assay: selectivity for protein tyrosine kinases in whole cells; assay type: cell-based; conditions: as compared to Dasatinib
From the text: The compounds of the invention are selective for protein tyrosine kinases (PTKs). […] SYF cells are mouse fibroblasts that lack the Src kinase family members Src, Yes and Fyn.

[6] = test system: K562R (Gleevec resistant CML); assay: growth inhibition, K562R; assay type: cell-based, Human
SK-N-FI = assay: brain tumor cell growth inhibition, SK-N-FI; assay type: cell-based, Human; conditions: neuroblastoma, read-out: IC50 (title: GI50)
GL261 = assay: brain tumor cell growth inhibition, GL261; assay type: cell-based; conditions: GL261, mouse glioblastoma; read-out: IC50 (title: GI50)
[7] = test system: MOLT-4 (Adult lymphoblastic leukemia); assay: growth inhibition, MOLT-4; assay type: cell-based, Human
LN-18 = assay: brain tumor cell growth inhibition, LN-18; assay type: cell-based, Human; conditions: LN-18, glioblastoma; glioma; read-out: IC50 (title: GI50)
JAK2 Y1007/1008 = assay: whole cell phosphorylation, JAK2; assay type: cell-based; conditions: whole cells
[8] = test system: HT29 (human colon cancer); conditions: KXO1 2.0 and 4 mg/kg bid vs Dasatinib 25 then 15 mg/kg bid, 28 days
[9] = test system: Src-Y416 autophosphorylation; assay: intracellular phosphorylation, Src autophosphorylation; assay type: cell-based; conditions: HT29 and c-Src527F/NIH-3T3 cells, 0.2×-25× GI50
Protocol: as §2, §3

[10] = test system: PC3-MM2 prostate cancer cells; assay: orthotopic prostate model for in vivo metastases; set-up: species or system Nu/Nu mice
Protocol: Nu/Nu mice (8-12 weeks of age) were injected with PC3-MM2 prostate cancer cells into the prostate as described previously in Pettaway et al., Clin Cancer Res 1996, 2:1627-1636, hereby incorporated herein by reference in its entirety. […] All mice were sacrificed by cervical dislocation on about day 42. Tumor volume (measured by caliper), weight, and incidence of regional (celiac or para-aortal) lymph node metastases were recorded.

H226 = assay: MTT growth inhibition, Dasatinib-resistant H226; assay type: cell-based, human; conditions: H226, 8.0×10^3 cells/well, […] FBS, 78 Hr
Protocol: Cell proliferation/growth inhibition was assessed using MTT colorimetric assay.
On Day 3, 10 μL MTT (5 mg/mL) was added to each well. Cells were then incubated in the presence of MTT for 4 hours at 37° C., appropriate CO2 conditions. After this incubation period, 90 μL 10% SDS(+HCl) was added to each well to lyse cells and solubilize formazan. Cells were then incubated overnight at 37° C., appropriate CO2 conditions.
The OD570 was measured using microplate reader. Growth inhibition curves and EC50/IC50 was determined using GraphPad Prism 4 statistical software.

FGFR2(h), sequence (P21802 22-821): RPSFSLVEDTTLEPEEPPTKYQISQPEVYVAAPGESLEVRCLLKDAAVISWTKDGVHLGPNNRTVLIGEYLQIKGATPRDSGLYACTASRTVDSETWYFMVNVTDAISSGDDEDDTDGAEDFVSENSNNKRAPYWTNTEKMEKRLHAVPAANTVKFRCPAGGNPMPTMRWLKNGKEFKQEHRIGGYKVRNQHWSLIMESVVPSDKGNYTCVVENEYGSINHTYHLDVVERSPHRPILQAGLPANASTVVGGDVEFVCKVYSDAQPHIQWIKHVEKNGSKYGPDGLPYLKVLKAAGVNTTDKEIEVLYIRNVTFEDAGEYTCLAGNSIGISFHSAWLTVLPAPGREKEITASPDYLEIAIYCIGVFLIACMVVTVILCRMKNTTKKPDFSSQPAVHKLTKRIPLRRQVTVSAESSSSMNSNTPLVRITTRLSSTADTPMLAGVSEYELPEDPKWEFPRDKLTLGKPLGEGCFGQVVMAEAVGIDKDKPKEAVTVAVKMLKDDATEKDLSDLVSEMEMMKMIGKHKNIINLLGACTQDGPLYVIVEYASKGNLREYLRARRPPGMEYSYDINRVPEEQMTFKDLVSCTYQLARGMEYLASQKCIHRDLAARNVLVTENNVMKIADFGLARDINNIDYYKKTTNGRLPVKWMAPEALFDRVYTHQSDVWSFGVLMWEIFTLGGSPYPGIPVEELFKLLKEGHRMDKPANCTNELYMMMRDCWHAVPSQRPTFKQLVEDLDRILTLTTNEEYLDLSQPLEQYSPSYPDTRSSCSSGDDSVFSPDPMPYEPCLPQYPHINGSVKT
EGFR(h), sequence (P00533 25-1210): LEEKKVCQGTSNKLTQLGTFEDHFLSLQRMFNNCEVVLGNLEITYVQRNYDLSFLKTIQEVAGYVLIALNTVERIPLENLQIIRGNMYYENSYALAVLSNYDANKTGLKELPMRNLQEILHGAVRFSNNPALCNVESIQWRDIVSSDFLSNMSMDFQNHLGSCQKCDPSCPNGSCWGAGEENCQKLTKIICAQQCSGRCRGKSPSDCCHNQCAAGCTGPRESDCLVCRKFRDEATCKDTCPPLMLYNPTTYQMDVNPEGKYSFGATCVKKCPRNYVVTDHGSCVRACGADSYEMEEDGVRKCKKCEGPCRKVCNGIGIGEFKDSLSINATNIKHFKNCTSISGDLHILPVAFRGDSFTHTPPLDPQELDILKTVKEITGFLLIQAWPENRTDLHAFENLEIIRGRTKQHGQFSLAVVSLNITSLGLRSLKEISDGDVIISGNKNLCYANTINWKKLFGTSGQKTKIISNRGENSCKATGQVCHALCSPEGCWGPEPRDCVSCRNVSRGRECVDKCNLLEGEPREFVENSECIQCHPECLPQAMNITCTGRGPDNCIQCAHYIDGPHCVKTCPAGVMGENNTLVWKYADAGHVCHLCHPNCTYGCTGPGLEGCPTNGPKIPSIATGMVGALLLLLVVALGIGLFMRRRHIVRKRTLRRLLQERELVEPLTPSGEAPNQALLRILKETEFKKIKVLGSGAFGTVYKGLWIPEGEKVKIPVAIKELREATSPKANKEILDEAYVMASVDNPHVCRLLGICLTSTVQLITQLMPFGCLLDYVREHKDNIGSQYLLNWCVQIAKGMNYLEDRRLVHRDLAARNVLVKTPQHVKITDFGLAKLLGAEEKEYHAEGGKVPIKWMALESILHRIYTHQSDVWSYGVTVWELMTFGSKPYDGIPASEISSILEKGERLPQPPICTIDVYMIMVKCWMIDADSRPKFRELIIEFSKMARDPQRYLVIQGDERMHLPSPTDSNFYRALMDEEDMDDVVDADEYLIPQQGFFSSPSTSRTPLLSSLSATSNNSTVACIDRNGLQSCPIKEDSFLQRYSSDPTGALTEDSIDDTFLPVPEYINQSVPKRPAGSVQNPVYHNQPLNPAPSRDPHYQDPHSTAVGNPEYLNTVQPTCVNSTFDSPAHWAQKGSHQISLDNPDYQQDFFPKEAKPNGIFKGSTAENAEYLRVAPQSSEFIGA
IGF-1R(h), sequence (P08069 31-1367): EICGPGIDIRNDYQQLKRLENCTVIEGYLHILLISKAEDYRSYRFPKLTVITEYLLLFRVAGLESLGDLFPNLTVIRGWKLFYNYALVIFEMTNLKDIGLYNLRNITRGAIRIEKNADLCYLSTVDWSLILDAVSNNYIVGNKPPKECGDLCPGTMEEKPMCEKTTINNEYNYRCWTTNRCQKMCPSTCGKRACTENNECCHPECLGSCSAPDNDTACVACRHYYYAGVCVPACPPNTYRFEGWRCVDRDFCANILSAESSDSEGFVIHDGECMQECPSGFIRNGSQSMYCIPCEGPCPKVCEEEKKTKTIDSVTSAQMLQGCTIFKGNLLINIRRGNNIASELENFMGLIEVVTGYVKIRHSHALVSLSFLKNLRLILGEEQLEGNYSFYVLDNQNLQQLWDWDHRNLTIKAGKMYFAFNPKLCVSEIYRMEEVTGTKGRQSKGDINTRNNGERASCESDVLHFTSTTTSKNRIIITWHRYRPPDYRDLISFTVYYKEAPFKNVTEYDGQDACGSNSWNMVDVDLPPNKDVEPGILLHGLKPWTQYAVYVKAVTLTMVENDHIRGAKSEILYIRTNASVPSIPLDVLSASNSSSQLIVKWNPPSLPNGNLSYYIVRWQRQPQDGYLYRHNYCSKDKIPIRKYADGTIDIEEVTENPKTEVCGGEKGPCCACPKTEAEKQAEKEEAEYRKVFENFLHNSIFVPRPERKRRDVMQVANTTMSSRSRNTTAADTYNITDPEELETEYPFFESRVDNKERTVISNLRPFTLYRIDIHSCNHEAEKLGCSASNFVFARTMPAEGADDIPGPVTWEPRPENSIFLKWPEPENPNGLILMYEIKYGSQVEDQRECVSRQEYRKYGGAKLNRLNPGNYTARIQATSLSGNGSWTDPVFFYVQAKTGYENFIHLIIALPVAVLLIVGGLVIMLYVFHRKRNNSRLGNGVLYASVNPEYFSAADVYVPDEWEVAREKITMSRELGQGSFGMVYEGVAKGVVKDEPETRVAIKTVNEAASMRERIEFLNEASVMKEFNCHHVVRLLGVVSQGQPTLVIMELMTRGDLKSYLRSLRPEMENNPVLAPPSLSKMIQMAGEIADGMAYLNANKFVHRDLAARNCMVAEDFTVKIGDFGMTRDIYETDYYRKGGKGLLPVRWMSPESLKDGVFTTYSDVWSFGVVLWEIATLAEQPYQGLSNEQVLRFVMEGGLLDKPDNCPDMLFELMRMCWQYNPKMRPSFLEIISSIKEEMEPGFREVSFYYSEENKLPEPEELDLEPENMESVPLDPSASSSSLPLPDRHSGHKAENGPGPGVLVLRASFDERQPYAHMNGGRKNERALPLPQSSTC
ZAP-70(h), sequence (P43403 whole entry): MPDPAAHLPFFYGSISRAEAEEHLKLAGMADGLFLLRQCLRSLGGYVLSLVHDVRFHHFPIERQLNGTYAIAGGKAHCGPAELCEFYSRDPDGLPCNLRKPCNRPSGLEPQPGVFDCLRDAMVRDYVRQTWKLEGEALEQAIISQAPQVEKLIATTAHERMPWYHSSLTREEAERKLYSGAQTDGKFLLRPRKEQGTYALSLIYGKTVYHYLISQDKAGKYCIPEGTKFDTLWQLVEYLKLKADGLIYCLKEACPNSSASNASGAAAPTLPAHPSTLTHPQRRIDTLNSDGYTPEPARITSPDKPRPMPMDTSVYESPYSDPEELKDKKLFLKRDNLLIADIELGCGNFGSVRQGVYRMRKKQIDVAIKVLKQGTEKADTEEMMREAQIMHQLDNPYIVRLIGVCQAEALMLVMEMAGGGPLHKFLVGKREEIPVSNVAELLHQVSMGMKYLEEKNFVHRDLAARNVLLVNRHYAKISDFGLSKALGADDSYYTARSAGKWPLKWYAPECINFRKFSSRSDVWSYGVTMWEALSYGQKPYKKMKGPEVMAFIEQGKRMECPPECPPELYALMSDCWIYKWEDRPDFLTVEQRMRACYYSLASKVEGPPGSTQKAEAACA
Lck(h), sequence (P06239 whole entry): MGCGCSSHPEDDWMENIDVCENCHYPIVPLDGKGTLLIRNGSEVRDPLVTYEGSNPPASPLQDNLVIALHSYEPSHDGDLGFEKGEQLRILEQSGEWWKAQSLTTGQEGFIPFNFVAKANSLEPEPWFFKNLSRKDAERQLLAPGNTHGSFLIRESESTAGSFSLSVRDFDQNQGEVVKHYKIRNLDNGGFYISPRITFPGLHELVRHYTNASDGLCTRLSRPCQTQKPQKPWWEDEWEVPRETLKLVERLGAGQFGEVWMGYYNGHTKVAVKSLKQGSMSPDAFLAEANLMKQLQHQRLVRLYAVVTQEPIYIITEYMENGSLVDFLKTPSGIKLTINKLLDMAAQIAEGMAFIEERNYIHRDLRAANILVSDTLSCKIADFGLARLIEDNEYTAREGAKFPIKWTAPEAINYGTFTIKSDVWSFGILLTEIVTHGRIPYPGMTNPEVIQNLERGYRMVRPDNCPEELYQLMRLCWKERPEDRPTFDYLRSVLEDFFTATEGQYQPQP
Fyn(h), sequence (P06241 whole entry): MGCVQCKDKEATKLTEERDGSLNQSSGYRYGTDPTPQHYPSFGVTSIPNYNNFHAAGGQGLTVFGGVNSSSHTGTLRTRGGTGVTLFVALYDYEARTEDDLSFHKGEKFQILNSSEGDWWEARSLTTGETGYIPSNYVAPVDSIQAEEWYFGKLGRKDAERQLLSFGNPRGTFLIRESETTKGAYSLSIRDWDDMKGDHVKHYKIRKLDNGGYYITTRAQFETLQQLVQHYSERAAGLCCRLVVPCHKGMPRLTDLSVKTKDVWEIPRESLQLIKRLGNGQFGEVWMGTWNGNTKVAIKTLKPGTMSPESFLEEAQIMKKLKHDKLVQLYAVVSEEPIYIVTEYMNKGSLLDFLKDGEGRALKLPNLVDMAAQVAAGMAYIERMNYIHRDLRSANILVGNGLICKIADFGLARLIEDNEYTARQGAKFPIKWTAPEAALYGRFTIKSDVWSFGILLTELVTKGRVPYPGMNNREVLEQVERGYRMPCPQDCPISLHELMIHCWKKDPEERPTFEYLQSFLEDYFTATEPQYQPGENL

In the case of `O=C(Cc1ccc(-c2ccc(OCCN3CCOCC3)cc2)cn1)NCc1ccccc1` [KX2-391], the “percent activity of isolated kinase relative to control” value (Fyn(h)) is reported as 85%, the “percent activity of isolated kinase relative to control” value (Lck(h)) is reported as 109% and the “phosphorylation of Paxillin Y-31 (Src transphosphorylation)” value (Paxillin Y-31) is reported as “inhibited”. The “percent activity of isolated kinase relative to control” value (PI3 kinase) was 100%, the “phosphorylation of FAK Tyr 925 (Src transphosphorylation)” value (FAK Tyr 925) was “inhibited” and the “percent activity of isolated kinase relative to control” value (IGF-1R(h)) was 101%. For the same molecule, the “percent activity of isolated kinase relative to control” value (Pyk2(h)) was 97%, the “percent activity of isolated kinase relative to control” value (FGFR2(h)) was 94% and the “percent activity of isolated kinase relative to control” value (EGFR(h)) was 134%. For the same molecule, the “percent activity of isolated kinase relative to control” value (PKCα(h)) was 111%, the “percent activity of isolated kinase relative to control” value (Yes(h)) was 92% and the “percent activity of isolated kinase relative to control” value (ZAP-70(h)) was 108%. The total phosphotyrosine levels [1] was “reduction in the total phosphotyrosine levels”.

Molecule `O=C(Cc1ccc(-c2ccc(OCCN3CCOCC3)cc2)cn1)NCc1ccccc1` [KXO1] has a GI50 [2] of 80 nM, a GI50 (Ba/F3 + WT BCR-Abl) of 85 nM and an IC50 (Daoy) of 13.6 nM. For the same molecule, the GI50 [3] was 10 nM, the GI50 [4] was 12 nM and the “PTK selectivity in whole cells” value [5] was “very high PTK selectivity”. The GI50 [6] was 0.64 nM, the IC50 (SK-N-FI) was 1.7 nM and the IC50 (GL261) was 13.7 nM. For the same molecule, the GI50 [7] was 13 nM, the IC50 (LN-18) was 14.5 nM and the “phosphorylation of JAK2 Y1007/1008” value (JAK2 Y1007/1008) was “not inhibited”. The “oral potency in staged HT29 mouse xenografts” value [8] was “higher oral potency”, the Src-Y416 autophosphorylation [9] was “potent inhibitor” and the LN metastasis ([10]; 5.0 mg/kg/day oral gavage) was 4/5. For the same molecule, the Tumor incidence ([10]; 5.0 mg/kg/day oral gavage) was 5/6, the “Tumor weight (g) Median” value ([10]; 5.0 mg/kg/day oral gavage) was 1.16 g and the LN metastasis ([10]; 10.0 mg/kg/day oral gavage) was 2/5. For the same molecule, the Tumor incidence ([10]; 10.0 mg/kg/day oral gavage) was 5/6, the “Tumor weight (g) Median” value ([10]; 10.0 mg/kg/day oral gavage) was 0.35 g and the IC50 (H226) was 98 nM. It also gave an IC80 (H226) of 277 nM and an IC90 (H226) of 490 nM.
